# Experimental data reported in patent US8809314B1, “Cephalosporin compound” (Cubist Pharmaceuticals, Inc., priority 2012, dated 2014).
# Columns and labels:
# [1] = tested on: Sa1721 (NARSA NRS384, MRSA USA 300); assay: MIC, broth microdilution (Example 5), Table 3; format: cell-based; details: Staphylococcus aureus
# Protocol: (§1) II. […] MIC90 values were defined as the concentration required to inhibit growth of 90% of the strains tested. • C. SAR was performed using the following isolates: Sa399 (ATCC43300, MRSA), Sa1721 (NARSA NRS384, MRSA USA 300), Pa44 (ATCC27853), and 4 clinical isolates (Pa2241, Pa2086 (mucoid strain), Pa2694 and Pa2698). • D. The in vitro antibacterial activity of the compound of formula (I) was further evaluated in an expanded MRSA and Pa MIC panel (see Table 4 and FIG. 6).
# Pa2241 = assay: MIC, broth microdilution (Example 5), Table 3; format: cell-based; details: Pseudomonas aeruginosa
# Protocol: as §1
# Pa2086 (mucoid strain) = assay: MIC, broth microdilution (Example 5), Table 3; format: cell-based; details: Pseudomonas aeruginosa
# Protocol: as §1
# Sa399 (ATCC43300, MRSA) = assay: MIC, broth microdilution (Example 5), Table 3; format: cell-based; details: Staphylococcus aureus
# Protocol: as §1
# Pa44 (ATCC27853) = assay: MIC, broth microdilution (Example 5), Table 3; format: cell-based; details: Pseudomonas aeruginosa
# Protocol: as §1
# Pa2694 = assay: MIC, broth microdilution (Example 5), Table 3; format: cell-based; details: Pseudomonas aeruginosa
# Protocol: as §1
# Pa2698 = assay: MIC, broth microdilution (Example 5), Table 3; format: cell-based; details: Pseudomonas aeruginosa
# Protocol: as §1
# [2] = tested on: Pseudomonas aeruginosa (n = 100); assay: MIC90, expanded MIC panel (Table 4); format: cell-based; details: 100 Pa strains
# Protocol: as §1
# MRSA (n = 21) = assay: MIC90, expanded MIC panel (Table 4); format: cell-based; details: Staphylococcus aureus; 21 MRSA strains; read-out: MIC90 MRSA (n = 21)
# Protocol: as §1
# [3] = tested on: ceftazidime-resistant Pseudomonas aeruginosa #2545; assay: Lung infection in neutropenic mice; format: in vivo; details: Pa #2545 lung infection, neutropenic mice
# Protocol: (§2) In vivo efficacy of (I) was evaluated against strains of MRSA, and ceftazidime-resistant Pa and Klebsiella pneumonia (Kpn) in mouse septicemia, thigh and lung infections. Septicemia: CD-1 mice received lethal bacterial inocula IP, followed by 2 doses of antibiotics SC at 1 and 6 hrs post-inoculation. Dose calculated to protect 50% of the mice (PD50) was derived based on probit analysis of percentage survival. Thigh and lung infections: Thighs or lungs of neutropenic mice were inoculated with MRSA or Pa. Two treatment doses were given SC at 1 and 6 hrs post-inoculation. Tissues were harvested at ˜24 hrs post-inoculation and bacterial burdens quantified.
# (§3) II. Methods • A. Animals: Six week-old, specific pathogen free, female CD-1 mice purchased from Charles River Laboratories (Wilmington, Mass.) were used for all studies after acclimation in Cubist animal facility. All animal procedures were approved by the Cubist Institutional Animal Care and Use Committee. • B. Bacteria and In Vitro Susceptibility Testing: MRSA #712, Pseudomonas aeruginosa #2245 and #2545, and Klebsiella pneumoniae #573 are clinical isolates; Pseudomonas aeruginosa #44 is an ATCC strain (ATCC#27853). MIC was determined in MHB by standard CLSI microdilution. Comparator Antibiotics Used in Animal Studies: Vancomycin hydrochloride USP was purchased from Hospira (Lake Forest, Ill.); ceftazidime hydrate from Sigma; Primaxin (imipenem and cilastatin) from Merck; ceftaroline was synthesized at a CRO. • D. Mouse Septicemia: Mice received lethal inocula of bacteria in 6% hog gastric mucin intraperitoneally (IP), followed by two treatment doses of antibiotics via subcutaneous (SC) administration at 1 and 6 hrs post-inoculation. The survival of animals was recorded daily for 7 days. The antibiotic dose calculated to protect 50% of the mice (PD50) was derived based on probit analysis of percentage survival. • E. Mouse Thigh and Lung Infections: Mice were rendered neutropenic by two IP injections of cyclophosphamide 4 days (150 mg/kg) and 1 day (100 mg/kg) before bacterial inoculation. Thigh or lung infection was induced by an intramuscular injection of 0.2 mL or intranasal inoculation of 0.1 mL inoculum preparation from an overnight bacterial culture into left thigh or nares. Tissues from one group of mice receiving no treatment (No Rx) were harvested at 1 hr for determination of baseline of bacterial burden. The remaining mice received two treatment doses of vehicles or antibiotics given SC at 1 and 6 hrs post-inoculation. Tissues from the treated mice were harvested at ˜24 hrs post-inoculation. Tissue bacterial burdens were quantified by serial dilution and spiral plating of homogenates.
# [4] = tested on: ceftazidime-susceptible Pseudomonas aeruginosa #2245; assay: Lung infection in neutropenic mice; format: in vivo; details: Pa #2245 lung infection, 3-log CFU reduction vs vehicle at 24 h
# Protocol: as §2, §3
# [5] = tested on: ceftazidime-susceptible Pseudomonas aeruginosa #44 (ATCC#27853); assay: Lung infection in neutropenic mice; format: in vivo; details: Pa #44 lung infection
# Protocol: as §2, §3
# [6] = 2 SC doses at 1 and 6 hrs, 24 h, vs vehicle
# [7] = 3-log CFU reduction vs vehicle at 24 h
smiles,measurement,setting,value
CO/N=C(\C(=O)N[C@@H]1C(=O)N2C(C(=O)[O-])=C(C[n+]3ccc(N)c(NC(=O)Nc4ccc(CCNC(=N)N)cc4)c3)CS[C@H]12)c1nc(N)sc1Cl [(I)],MIC,[1],8 µg/mL
same,MIC,Pa2241,1 µg/mL
same,MIC,Pa2086 (mucoid strain),8 µg/mL
same,MIC,"Sa399 (ATCC43300, MRSA)",2 µg/mL
same,MIC,Pa44 (ATCC27853),2 µg/mL
same,MIC,Pa2694,8 µg/mL
same,MIC,Pa2698,8 µg/mL
same,MIC90,[2],8 µg/mL
same,MIC90,MRSA (n = 21),2 µg/mL
same,Lung (L) ED−2log,[3]; [6],6.7 (L) mg/kg
same,ED−3 log,[3]; [7],11.4 mg/kg
same,ED−3 log,[4],5.2 mg/kg
same,Lung (L) ED−2log,[5]; [6],1.8 (L) mg/kg
same,ED−3 log,[5]; [7],4.1 mg/kg
